The target of test [1] is T1, E-selectin/IgG construct (Homo sapiens, UniProt P16581).
T1 construct: fused on or other part: IgG Fc part (human, since it is captured by goat anti-human Fc antibody), fused on as a capture handle
T1 sequence (P16581 22-175 limits assumed): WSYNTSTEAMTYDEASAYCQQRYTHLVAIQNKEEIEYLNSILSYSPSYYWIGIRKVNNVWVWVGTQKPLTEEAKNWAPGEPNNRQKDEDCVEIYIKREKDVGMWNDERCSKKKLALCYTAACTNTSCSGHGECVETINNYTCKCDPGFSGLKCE
Briefly: BIAcore SPR ranking procedure at a single concentration (relative binding affinity). The settings on record: SPR signal at single concentration 0.05 μM divided by molecular weight, normalized to internal standard; KD larger than for reference compound 64, however below 135 nM; read-out: KD values (relative* binding affinities, ranking procedure). Here is the method: (§1) The biological evaluation of the E-selectin antagonists was performed by surface plasmon resonance (SPR). For this purpose, an E-selectin/IgG construct was captured onto a BIAcore chip surface bearing covalently linked goat anti-human Fc specific antibody (Biacore Life Sciences, Uppsala, Sweden).
The ranking of the antagonists was performed in order to obtain qualitative information on the binding strength of twenty indole antagonists. For the ranking, SPR signals were recorded at a single concentration (0.05 μM) and divided by the molecular weight of the compounds. The result obtained was normalized to the response obtained with an internal standard (63) in order to avoid problems related to the measurement on different chips with different surfaces. DMSO calibration and double referencing were applied to correct bulk effects and other systematic artifacts (subtraction of reference surface and blank injection).

Test [2] concerns the target T1, E-selectin/IgG construct. The test can be described thus: BIAcore surface plasmon resonance (SPR)-based assay, serial dilutions of the ligand (absolute KD). The settings on record: twofold serial dilutions, 600 s association/600 s dissociation, HBS-P + 20 mm calcium + DMSO 5% v/v, read-out: KD values (absolute binding affinities). On the procedure:
as §1
Evaluation of E-Selectin Antagonists with Surface Plasmon Resonance (SPR)-Based Assay
Ten twofold serial dilutions of the ligand were non-randomly injected. The E-selectin antagonists were diluted in running buffer (HBS-P supplemented with […] calcium and DMSO 5% v/v). Antagonist dilutions were injected with a 600 s association time and 600 s dissociation time at a flow rate of 20 μL/min over the reference and the active flow cell. […] In addition, to prevent the presence of residual traces of compound, a blank injection was performed between each injection of ligand dilution. DMSO calibration and double referencing were applied to correct bulk effects and other systematic artifacts (subtraction of reference surface and blank injection).

Regarding `C[C@@H]1O[C@@H](O[C@@H]2[C@@H](C)C[C@@H](C(=O)NCc3cn(CCn4ccc5cc([N+](=O)[O-])ccc54)nn3)C[C@H]2O[C@@H]2O[C@H](CO)[C@H](O)[C@H](O[C@@H](CC3CCCCC3)C(=O)O)[C@H]2OC(=O)c2ccccc2)[C@@H](O)[C@H](O)[C@@H]1O` [Product 57, (1R,3R,4R,5S)-3-[2-O-Benzoyl-3-O-((1S)-1-carboxy-2-cyclohexyl-ethyl)-(β-D-galactopyranosyl)oxy]-4-[(α-L-fucopyranosyl)oxy]-5-methyl-N-({1-[2-(5-nitro-1H-indol-1-yl)ethyl]-1H-1,2,3-triazol-4-yl}methyl)cyclohexanecarboxamide], the Kd (commonly the equilibrium constant for the complex coming apart) in test [1] was above 89 nM.
Regarding `C[C@@H]1O[C@@H](O[C@@H]2[C@@H](C)C[C@@H](C(=O)NCc3cn(CCCn4ccc5cc([N+](=O)[O-])ccc54)nn3)C[C@H]2O[C@@H]2O[C@H](CO)[C@H](O)[C@H](O[C@@H](CC3CCCCC3)C(=O)O)[C@H]2OC(=O)c2ccccc2)[C@@H](O)[C@H](O)[C@@H]1O` [Product 58, (1R,3R,4R,5S)-3-[2-O-Benzoyl-3-O-((1S)-1-carboxy-2-cyclohexyl-ethyl)-(β-D-galactopyranosyl)oxy]-4-[(α-L-fucopyranosyl)oxy]-5-methyl-N-({1-[3-(5-nitro-1H-indol-1-yl)propyl]-1H-1,2,3-triazol-4-yl}methyl)cyclohexanecarboxamide], the Kd in test [2] was found to be 57 nM.
For `C[C@@H]1O[C@@H](O[C@@H]2[C@@H](C)C[C@@H](C(=O)NCc3cn(CCCCn4ccc5cc([N+](=O)[O-])ccc54)nn3)C[C@H]2O[C@@H]2O[C@H](CO)[C@H](O)[C@H](O[C@@H](CC3CCCCC3)C(=O)O)[C@H]2OC(=O)c2ccccc2)[C@@H](O)[C@H](O)[C@@H]1O` [Product 59, (1R,3R,4R,5S)-3-[2-O-Benzoyl-3-O-((1S)-1-carboxy-2-cyclohexyl-ethyl)-(β-D-galactopyranosyl)oxy]-4-[(α-L-fucopyranosyl)oxy]-5-methyl-N-({1-[4-(5-nitro-1H-indol-1-yl)butyl]-1H-1,2,3-triazol-4-yl}methyl)cyclohexanecarboxamide], in test [1], the Kd is above 89 nM.
On the same count and under the same terms, the same measure for `C[C@@H]1O[C@@H](O[C@@H]2[C@@H](C)C[C@@H](C(=O)NCCc3cn(CCn4ccc5cc([N+](=O)[O-])ccc54)nn3)C[C@H]2O[C@@H]2O[C@H](CO)[C@H](O)[C@H](O[C@@H](CC3CCCCC3)C(=O)O)[C@H]2OC(=O)c2ccccc2)[C@@H](O)[C@H](O)[C@@H]1O` [Product 61, (1R,3R,4R,5S)-3-[2-O-Benzoyl-3-O-((1S)-1-carboxy-2-cyclohexyl-ethyl)-(β-D-galactopyranosyl)oxy]-4-[(α-L-fucopyranosyl)oxy]-5-methyl-N-(2-{1-[2-(5-nitro-1H-indol-1-yl)ethyl]-1H-1,2,3-triazol-4-yl}ethyl)cyclohexanecarboxamide]: above 89 nM; for `C[C@@H]1O[C@@H](O[C@@H]2[C@@H](C)C[C@@H](C(=O)NCCc3cn(CCCn4ccc5cc([N+](=O)[O-])ccc54)nn3)C[C@H]2O[C@@H]2O[C@H](CO)[C@H](O)[C@H](O[C@@H](CC3CCCCC3)C(=O)O)[C@H]2OC(=O)c2ccccc2)[C@@H](O)[C@H](O)[C@@H]1O` [Product 62, (1R,3R,4R,5S)-3-[2-O-Benzoyl-3-O-((1S)-1-carboxy-2-cyclohexyl-ethyl)-(β-D-galactopyranosyl)oxy]-4-[(α-L-fucopyranosyl)oxy]-5-methyl-N-(2-{1-[3-(5-nitro-1H-indol-1-yl)propyl]-1H-1,2,3-triazol-4-yl}ethyl)cyclohexanecarboxamide]: above 89 nM.
Take `C[C@@H]1O[C@@H](O[C@@H]2[C@@H](C)C[C@@H](C(=O)NCCc3cn(CCCCn4ccc5cc([N+](=O)[O-])ccc54)nn3)C[C@H]2O[C@@H]2O[C@H](CO)[C@H](O)[C@H](O[C@@H](CC3CCCCC3)C(=O)O)[C@H]2OC(=O)c2ccccc2)[C@@H](O)[C@H](O)[C@@H]1O` [Product 63, (1R,3R,4R,5S)-3-[2-O-Benzoyl-3-O-((1S)-1-carboxy-2-cyclohexyl-ethyl)-(β-D-galactopyranosyl)oxy]-4-[(α-L-fucopyranosyl)oxy]-5-methyl-N-(2-{1-[4-(5-nitro-1H-indol-1-yl)butyl]-1H-1,2,3-triazol-4-yl}ethyl)cyclohexanecarboxamide]: the Kd in test [2] amounted to 49 nM.
As for `C[C@@H]1O[C@@H](O[C@@H]2[C@@H](C)C[C@@H](C(=O)NCCCc3cn(CCn4ccc5cc([N+](=O)[O-])ccc54)nn3)C[C@H]2O[C@@H]2O[C@H](CO)[C@H](O)[C@H](O[C@@H](CC3CCCCC3)C(=O)O)[C@H]2OC(=O)c2ccccc2)[C@@H](O)[C@H](O)[C@@H]1O` [Product 65, (1R,3R,4R,5S)-3-[2-O-Benzoyl-3-O-((1S)-1-carboxy-2-cyclohexyl-ethyl)-(β-D-galactopyranosyl)oxy]-4-[(α-L-fucopyranosyl)oxy]-5-methyl-N-(3-{1-[2-(5-nitro-1H-indol-1-yl)ethyl]-1H-1,2,3-triazol-4-yl}propyl)cyclohexanecarboxamide], the equilibrium dissociation constant (Kd) in test [1] was above 89 nM.
For the compound `C[C@@H]1O[C@@H](O[C@@H]2[C@@H](C)C[C@@H](C(=O)NCCCc3cn(CCCn4ccc5cc([N+](=O)[O-])ccc54)nn3)C[C@H]2O[C@@H]2O[C@H](CO)[C@H](O)[C@H](O[C@@H](CC3CCCCC3)C(=O)O)[C@H]2OC(=O)c2ccccc2)[C@@H](O)[C@H](O)[C@@H]1O` [Product 66, (1R,3R,4R,5S)-3-[2-O-Benzoyl-3-O-((1S)-1-carboxy-2-cyclohexyl-ethyl)-(β-D-galactopyranosyl)oxy]-4-[(α-L-fucopyranosyl)oxy]-5-methyl-N-(3-{1-[3-(5-nitro-1H-indol-1-yl)propyl]-1H-1,2,3-triazol-4-yl}propyl)cyclohexanecarboxamide], the dissociation constant Kd in test [2] turned out to be 30 nM.
With `C[C@@H]1O[C@@H](O[C@@H]2[C@@H](C)C[C@@H](C(=O)NCCCc3cn(CCCCn4ccc5cc([N+](=O)[O-])ccc54)nn3)C[C@H]2O[C@@H]2O[C@H](CO)[C@H](O)[C@H](O[C@@H](CC3CCCCC3)C(=O)O)[C@H]2OC(=O)c2ccccc2)[C@@H](O)[C@H](O)[C@@H]1O` [Product 67, (1R,3R,4R,5S)-3-[2-O-Benzoyl-3-O-((1S)-1-carboxy-2-cyclohexyl-ethyl)-(β-D-galactopyranosyl)oxy]-4-[(α-L-fucopyranosyl)oxy]-5-methyl-N-(3-{1-[4-(5-nitro-1H-indol-1-yl)butyl]-1H-1,2,3-triazol-4-yl}propyl)cyclohexanecarboxamide], the Kd in test [1] is above 89 nM.
With `C[C@@H]1O[C@@H](O[C@@H]2[C@@H](C)C[C@@H](C(=O)NCCCc3cn(CCCn4ccc5cc(N)ccc54)nn3)C[C@H]2O[C@@H]2O[C@H](CO)[C@H](O)[C@H](O[C@@H](CC3CCCCC3)C(=O)O)[C@H]2OC(=O)c2ccccc2)[C@@H](O)[C@H](O)[C@@H]1O` [Product 76, (1R,3R,4R,5S)—N-(3-{1-[3-(5-Amino-1H-indol-1-yl)propyl]-1H-1,2,3-triazol-4-yl}propyl)-3-[2-O-benzoyl-3-O-((1S)-1-carboxy-2-cyclohexyl-ethyl)-(β-D-galactopyranosyl)oxy]-4-[(α-L-fucopyranosyl)oxy]-5-methylcyclohexanecarboxamide], in test [1], the Kd is above 89 nM.
The same measure, in the same setting: the same measure for `CC(=O)Nc1ccc2c(ccn2CCCn2cc(CCCNC(=O)[C@@H]3C[C@H](C)[C@@H](O[C@@H]4O[C@@H](C)[C@@H](O)[C@@H](O)[C@@H]4O)[C@H](O[C@@H]4O[C@H](CO)[C@H](O)[C@H](O[C@@H](CC5CCCCC5)C(=O)O)[C@H]4OC(=O)c4ccccc4)C3)nn2)c1` [Product 77, (1R,3R,4R,5S)—N-(3-{1-[3-(5-Acetamido-1H-indol-1-yl)propyl]-1H-1,2,3-triazol-4-yl}propyl)-3-[2-O-benzoyl-3-O-((1S)-1-carboxy-2-cyclohexyl-ethyl)-(β-D-galactopyranosyl)oxy]-4-[(α-L-fucopyranosyl)oxy]-5-methylcyclohexanecarboxamide]: above 89 nM.
As for `C[C@@H]1O[C@@H](O[C@@H]2[C@@H](C)C[C@@H](C(=O)NCCCc3cn(CCCn4ccc5cc(NC(=O)COCCOCCN)ccc54)nn3)C[C@H]2O[C@@H]2O[C@H](CO)[C@H](O)[C@H](O[C@@H](CC3CCCCC3)C(=O)O)[C@H]2OC(=O)c2ccccc2)[C@@H](O)[C@H](O)[C@@H]1O` [Product 78, (1R,3R,4R,5S)—N-(3-{1-[3-(5-{2-[2-(2-Aminoethoxy)ethoxy]acetamido}-1H-indol-1-yl)propyl]-1H-1,2,3-triazol-4-yl}propyl)-3-[2-O-benzoyl-3-O-((1S)-1-carboxy-2-cyclohexyl-ethyl)-(β-D-galactopyranosyl)oxy]-4-[(α-L-fucopyranosyl)oxy]-5-methylcyclohexanecarboxamide], in test [1], the equilibrium dissociation constant (Kd) was above 89 nM.
